Reference: patent US5079228A, “Peptide inhibitors of neutrophil activating factor induced chemotaxis” (Board of Regents, The University of Texas System, priority 1990, dated 1992)
Entries after “also recorded” stand apart in the source; their conditions may differ.

How the values were obtained:
neutrophil chemotaxis = details: Tanaka et al.; cited from earlier work
human neutrophils = test: Neutrophil chemotaxis, leading front method in blind well chamber (chemotactic activity of the peptide itself); type: cell-based; details: for DISTANCE MOVED (% of control): control = RPMI-1640; for effect on cell migration (in words): peptide concentration of 1×10^-9 M, FIG. 1
Protocol: Each of the peptides was assayed for its ability to induce the directed migration of neutrophils towards itself. […] The distances migrated by the cells, under the influence of the various peptides, was therefore expressed as a percentage of the distance travelled in RPMI tissue culture medium alone. In the first experiments the effect of native NAF on the cells was compared to that of FMLP (FIG. I). […] None of the synthetic peptides induced chemotaxis either alone or in combination with one another when the synthetic peptides were examined under the same conditions (FIG. 2).
(§1) Human blood was anticoagulated with heparin.
(§2) Chemotaxis was performed using the leading front method as described by Zigmond and Hirsch.^21 The test material was placed in the lower well of a blind well chemotaxis chamber.^22 A five micron pore size, and 100 μl aliquot of the neutrophil preparation (1×10^6 cells/ml) in RPMI-1640 containing 1% albumin was added to the top of the filter and incubated at 37° C. for 30 min. (In some experiments neutrophils were pre-incubated in the presence of peptide for 10 min at room temperature before being added to the upper chamber.) The filter was then fixed and stained and mounted on a glass microscope slide. The leading front was determined by the position of the leading two cells. The distance that the leading two cells had moved through the filter was measured for six fields on each filter. The measurements were made with two filters for each set of conditions.

[1] = test system: cytochalasin B primed neutrophils; test: Enzyme release from neutrophils (β-D-glucuronidase, microtiter plate); type: cell-based, human; details: 37° C., 30 min, FIG. 3
Protocol: Neutrophil enzyme release was measured by a modification of the method of Goldstein and colleagues.^23 Cytochalasin B (Sigma Chemical Co., St. Louis, Mo.) was stored in dimethylsulphoxide at a concentration of 5 mg/ml and diluted to a concentration of 100 μg/ml in Hanks' balanced salt solution (HBSS) immediately before use. Neutrophils were prepared as described and incubated at a cell density of 5×10^6 cells/ml for ten minutes at room temperature in the presence of Cytochalasin B (10 μg/ml). Aliquots of 100 μl of the primed cell suspension were then distributed into the wells of a 96-well microtiter plate and 100 μl of stimulant was added. The cells were then incubated at 37° C. for 30 min. The plates were centrifuged at 850 rpm for 5 min, and 100 μl of supernatant was removed. The supernatants were assayed for β-D-glucuronidase activity.
The ability of native NAF and the synthetic peptides to induce the release of β-D-glucuronidase from cytochalasin B primed neutrophils was examined using a microtiter plate technique. […]
β-D-glucuronidase was measured by determining the change in absorbance of phenolphthalein β-D-glucuronide (Sigma Chemical Co.) at 540 nm by the method of Gianetto and DeDuve.^24 The results were expressed as picomoles of substrate hydrolysed per hour.

[2] = test system: Neutrophil activating factor induced human neutrophil chemotaxis; test: Inhibition of NAF-induced neutrophil chemotaxis; type: cell-based
Source text: (§3) The peptides were examined to determine if any of the peptides could block the action of the native molecule. In these experiments the attractant in the lower well of the Boyden chamber contained both native NAF (1×10^-8 M) and one or more synthetic peptide(s) (1×10^-6 M) Table 2. The migration of the cells in RPMI tissue culture medium alone, or under the influence of native NAF or the individual peptides was also examined in each experiment. […] The mean migration of native NAF was an average of 79% (S.D.=3) above that of buffer alone, while the mean migration towards native NAF in the presence of NAF (3-25) was 32% (S.D.=10) and the mean migration towards native NAF in the presence of NAF (44-72) (S.D.=13) was 52% above control migration (Table 2). These reductions are statistically significant at p<0.002 by Student's t test. These two peptides inhibited NAF induced migration by 59 and 34% respectively. When NAF was incubated in the presence of both peptides the mean migration towards native NAF was 24% (S.D.=3) above controls for a total inhibition of NAF activity of 70%. Therefore, the inhibitory effects of the peptides were approximately additive.
as §1, §2

[3] = test system: chemotaxis induced by FMLP; test: Specificity: effect on FMLP-induced neutrophil chemotaxis; type: cell-based, human; details: FMLP 5 × 10^-9 M plus peptide 1 × 10^-6 M
Source text: as §3, with “These two peptides inhibited NAF induced migration by 59 and 34% respectively. When NAF was incubated in the presence of both peptides the mean migration towards native NAF was 24% (S.D.=3) above controls for a total inhibition of NAF activity of 70%. Therefore, the inhibitory effects of the peptides were approximately additive.” left out
Chemotaxis was performed using the leading front method as described by Zigmond and Hirsch.^21 The test material was placed in the lower well of a blind well chemotaxis chamber.^22 A five micron pore size, and 100 μl aliquot of the neutrophil preparation (1×10^6 cells/ml) in RPMI-1640 containing 1% albumin was added to the top of the filter and incubated at 37° C. for 30 min. […] The leading front was determined by the position of the leading two cells. The distance that the leading two cells had moved through the filter was measured for six fields on each filter. […]

[4] = NAF 1 × 10^-8 M plus peptide 1 × 10^-6 M in lower well
[5] = NAF 1 × 10^-8 M, neutrophils preincubated with peptide 1 × 10^-6 M (10 min, room temperature)

(7-37): peptide of Tanaka et al. corresponding to residues (7-37) of the NAF sequence (AKELRCQCIKTYSKPFHPKFIKELRVIESGP; Interleukin-8; UniProt P10145 29-59, looked up, fragment)
chemotactic activity (in words) (neutrophil chemotaxis): inactive
inhibition of chemotaxis (in words) (neutrophil chemotaxis): did not find that any of their synthetic peptides inhibited chemotaxis

Neutrophil activating factor [NAF]
DISTANCE MOVED (% of control) (human neutrophils; NAF alone, 1 × 10^-8 M): 179 ± 3 % of control
mean migration above that of buffer alone (human neutrophils; native NAF 1 × 10^-8 M): 79%
effect on cell migration (in words) (human neutrophils): increase the cell migration
release of β-D-glucuronidase from neutrophils (in words) [1]: Neither NAF nor any of the synthetic peptides caused the cells to degranulate; also recorded: failed to release β-D-glucuronidase; also recorded: None of the synthetic peptides, nor native NAF, caused release of β-D-glucuronidase

FMLP
DISTANCE MOVED (% of control) (human neutrophils; FMLP alone, 5 × 10^-9 M): 180 ± 17 % of control
effect on cell migration (in words) (human neutrophils): increase the cell migration
release of β-D-glucuronidase from neutrophils (in words) [1]: stimulated release from the cells was possible

(30-72): peptide of Tanaka et al. corresponding to residues (30-72) of the NAF sequence (LRVIESGPHCANTEIIVKLSDGRELCLDPKENWVQRVVEKFLK; Interleukin-8; UniProt P10145 52-94, looked up, fragment)
chemotactic activity (in words) (neutrophil chemotaxis): inactive
inhibition of chemotaxis (in words) (neutrophil chemotaxis): did not find that any of their synthetic peptides inhibited chemotaxis

KELRCQCIKTYSKPFHPKFIKEL [NAF(3-25)]
DISTANCE MOVED (% of control) [2, 4]: 132 ± 10 % of control
INHIBITION (%) of NAF-induced neutrophil chemotaxis [2, 4]: 59 ± 13%
INHIBITION (%) of NAF-induced neutrophil chemotaxis ([2]; NAF 1 × 10^-8 M plus peptide 1 × 10^-6 M in lower well, listed as NAF (3-25)): 59%
DISTANCE MOVED (% of control) [2, 5]: 97 ± 11 % of control
INHIBITION (%) of NAF-induced neutrophil chemotaxis [2, 5]: 104 ± 14%
mean migration towards native NAF in the presence of peptide, above control migration ([2]; native NAF 1 × 10^-8 M plus synthetic peptide(s) 1 × 10^-6 M): 32%
effect on the action of native NAF (in words) ([2]; native NAF plus synthetic peptide): able to reduce neutrophil chemotaxis; also recorded: reduce the action of native NAF
DISTANCE MOVED (% of control) (human neutrophils; synthetic peptide alone, 1 × 10^-6 M in lower well): 100 ± 6 % of control
DISTANCE MOVED (% of control) [3]: 190 ± 18 % of control

(17-37): peptide of Tanaka et al. corresponding to residues (17-37) of the NAF sequence (TYSKPFHPKFIKELRVIESGP; Interleukin-8; UniProt P10145 39-59, looked up, fragment)
chemotactic activity (in words) (neutrophil chemotaxis): inactive
inhibition of chemotaxis (in words) (neutrophil chemotaxis): did not find that any of their synthetic peptides inhibited chemotaxis
